The subject of one experiment is HRV-14. Nature of the experiment: Antirhinoviral H1-HeLa cell culture assay, HRV-14. The following applies: Rhinovirus B, HRV14, H1-HeLa, HRV serotype-14, H1-HeLa cells. In kind it is cell-based, human rhinovirus. Summed up: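 XTT cell-protection assay in H1-HeLa cells infected with rhinovirus or mock-infected, then incubated with compound for two days; formazan was read at 450/650 nm. EC50 is the concentration restoring infected-cell formazan to 50% of compound-free mock-infected cells; CC50 is the concentration halving formazan in mock-infected cells.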

The test system of another experiment is HRV (13). Nature of the experiment: Antirhinoviral H1-HeLa cell culture assay, HRV serotype 13. In kind it is cell-based, human rhinovirus. The following applies: Human rhinovirus sp., H1-HeLa, H1-HeLa cells, XTT. The method, then:
(§1) In this cell protection assay, the ability of compounds to protect cells against HRV infection was measured by the XTT dye reduction method, which is described in Weislow et al., J. Natl. Cancer Inst. 1989, vol. 81, 577-586.
(§2) H1-HeLa cells were infected with HRV-14 at a multiplicity of infection (m.o.i.) of 0.13 (virus particles/cell) or mock-infected with medium only. Infected or mock-infected cells were resuspended at 8×10^5 cells per mL, and incubated with appropriate concentrations of the compounds to be tested. Two days later, XTT/PMS was added to test plates and the amount of formazan produced was quantified spectrophotometrically at 450/650 nm. The EC50 value was calculated as the concentration of compound that increased the percentage of formazan production in compound-treated, virus-infected cells to 50% of that produced by compound-free, mock-infected cells. The 50% cytotoxic dose (CC50) was calculated as the concentration of compound that decreased the percentage of formazan produced in compound-treated, mock-infected cells to 50% of that produced by compound-free, mock-infected cells. The therapeutic index (TI) was calculated by dividing the CC50 value by the EC50 value.
(§3) All strains of human rhinovirus (HRV) for use in this assay were purchased from American Type Culture Collection (ATCC), except for HRV serotype-14 (produced from the infectious cDNA clone constructed by Dr. Robert Rueckert, Institute for Molecular Virology, University of Wisconsin, Madison, Wis.). HRV stocks were propagated and viral assays were performed in H1-HeLa cells (ATCC). Cells were grown in minimal essential medium with 10% fetal bovine serum, available from Life Technologies (Gaithersburg, Md.).
(§4) The compounds were tested against control compounds WIN 51711, WIN 52084, and WIN 54954 (obtained from Sterling-Winthrop Pharmaceuticals), Pirodavir (obtained from Janssen Pharmaceuticals), and Pleconaril (prepared according to the method described in Diana et al., J. Med. Chem 1995, vol. 38, 1355). […]
(In general: Tetrazolium dyes change colour on reduction, which living cells bring about.)

The test system of experiment [1] is Coxsackievirus type B3 (CVB-3). Nature of the experiment: Anticoxsackieviral cell culture assay, CVB-3. Particulars: 24 h, Strain CVB-3, H1-HeLa cells, one day, XTT, read-out: EC50. In kind it is cell-based. On the procedure: Coxsackievirus types A-21 (CAV-21) and B3 (CVB-3) were purchased from American Type Culture Collection (ATCC, Rockville, Md.). Virus stocks were propagated and antiviral assays were performed in H1-HeLa cells (ATCC). Cells were grown in minimal essential medium with 10% fetal bovine serum (Life Technologies, Gaithersburg, Md.).
The ability of compounds to protect cells against either CAV-21 or CVB-3 infection was measured by the XTT dye reduction method. This method is described in Weislow et al., J. Natl. Cancer Inst. 1989, vol. 81, 577-586. H1-HeLa cells were infected with CAV-21 or CVB-3 at a multiplicity of infection (m.o.i.) of 0.025 or 0.075, respectively, or mock-infected with medium only. H1-HeLa cells were plated at 4×10^4 cells per well in a 96-well plate and incubated with appropriate concentrations of the test compound. One day (CVB-3) or two days (CAV-21) later, XTT/PMS was added to test plates and the amount of formazan produced was quantified spectrophotometrically at 450/650 nm. The EC50 was calculated as the concentration of compound that increased the formazan production in compound-treated, virus-infected cells to 50% of that produced by compound-free, uninfected cells. The 50% cytotoxic dose (CC50) was calculated as the concentration of compound that decreased formazan production in compound-treated, uninfected cells to 50% of that produced in compound-free, uninfected cells. The therapeutic index TI) was calculated by dividing the CC50 by the EC50.
The compounds were tested against control compounds WIN 54954 (obtained from Sterling-Winthrop Pharmaceuticals), Pirodavir (obtained from Janssen Pharmaceuticals), and Pleconaril (prepared according to Diana et al., J. Med. Chem. 1995, 38, 1355).

For another experiment, the system named is HRV (2). Nature of the experiment: Antirhinoviral H1-HeLa cell culture assay, HRV serotype 2. Particulars: Human rhinovirus sp., H1-HeLa, H1-HeLa cells, XTT. In kind it is cell-based, human rhinovirus. The method, then: as §1, §2, §3
(§5) The compounds were tested against control compounds WIN 51711, WIN 52084, and WIN 54954 (obtained from Sterling-Winthrop Pharmaceuticals), Pirodavir (obtained from Janssen Pharmaceuticals), and Pleconaril (prepared according to the method described in Diana et al., J. Med. Chem 1995, vol. 38, 1355). Antiviral data obtained for the test compounds are shown in Tables 1 and 3, where all data are for HRV serotype-14 unless otherwise noted in parentheses.

Experiment [2] relates to Echovirus type 11 (EV 11). The experiment in a line: Anti-echoviral cell culture assay, EV 11. In kind it is cell-based. Particulars: Enterovirus B, MRC5, 96 h; Strain EV-11; MRC-5 cells; four days; XTT; read-out: EC50. The method, then:
Echovirus type 11 (EV 11) and enterovirus type 70 (EV 70) were purchased from ATCC (Rockville, Md.). Virus stocks were propagated and antiviral assays were performed in MRC-5 cells (ATCC). Cells were grown in minimal essential medium with 10% fetal bovine serum (Life Technologies, Gaithersburg, Md.).
The ability of compounds to protect cells against either EV 11 or EV 70 infection was measured by the XTT dye reduction method (Weislow et al., J. Natl. Cancer Inst. 1989, vol. 81, 577-586). MRC-5 cells were infected with EV 11 or EV 70 at an m.o.i. of 0.003 or 0.004, respectively, or mock-infected with medium only. Infected or uninfected cells were added at 1×10^4 cells per well and incubated with appropriate concentrations of compound. Four days later, XTT/PMS was added to test plates, and the amount of formazan produced was quantified spectrophotometrically at 450/650 nm. The EC50 was calculated as the concentration of compound that increased the formazan production in compound-treated, virus-infected cells to 50% of that produced by compound-free, uninfected cells. The 50% cytotoxic dose (CC50) was calculated as the concentration of compound that decreased formazan production in compound-treated, uninfected cells to 50% of that produced in compound-free, uninfected cells. The therapeutic index (TI) was calculated by dividing the CC50 by the EC50.
The compounds were tested against control compounds Pirodavir (obtained from Janssen Pharmaceuticals) and Pleconaril (prepared according to Diana et al., J. Med. Chem. 1995, vol. 38, 1355). Antiviral data obtained for the test compounds against strain EV 11 and EV 70 are shown below in Table 5.

A further experiment deals with HRV (3). The experiment in a line: Antirhinoviral H1-HeLa cell culture assay, HRV serotype 3. In kind it is cell-based, human rhinovirus. Particulars: Human rhinovirus sp., H1-HeLa, H1-HeLa cells, XTT. On the procedure: as §1, §2, §3, §4
The next experiment deals with HRV (1A). Nature of the experiment: Antirhinoviral H1-HeLa cell culture assay, HRV serotype 1A. In kind it is cell-based. The following applies: Human rhinovirus sp., H1-HeLa cells, XTT. On the procedure: as §1, §2, §3, §5
In a further experiment the test system is HRV (16). Nature of the experiment: Antirhinoviral H1-HeLa cell culture assay, HRV serotype 16. In kind it is cell-based. Particulars: Human rhinovirus sp., H1-HeLa cells, XTT. The method, then:
as §1, §2, §3, §4

A further experiment concerns HRV (87). Nature of the experiment: Antirhinoviral H1-HeLa cell culture assay, HRV serotype 87. Particulars: Human rhinovirus sp., H1-HeLa cells, XTT. In kind it is cell-based. On the procedure:
as §1
as §2, with “value. […]” for “value.”

Where two headings read alike, the source gives them in different places.

Regarding `CCOC(=O)/C=C/[C@H](C[C@@H]1CCNC1=O)NC(=O)[C@@H](CC(=O)[C@@H](NC(=O)c1cc(C)on1)C(C)C)Cc1ccc(F)cc1` [Compound B-2, Ethyl-3-{(5′-Methylisoxazole-3′-carbonyl)-L-ValΨ(COCH2)-L-(4-F-Phe)-L-((S)-Pyrrol-Ala)}-E-Propenoate], the EC50 with HRV-14 (Table 1, XTT dye reduction, read-out: Cell Protection EC50) was determined as 5 nM; in the experiment with HRV-14 (Table 3, XTT, read-out: EC50), 5 nM; in the experiment with HRV (13), 10 nM; in [1], 180 nM; in the experiment on HRV (2) it was 20 nM; in [2], 10 nM. For the same compound, the EC50 in the experiment with HRV (3) was 20 nM; in the experiment on HRV (1A), 20 nM; in the experiment on HRV (16), 10 nM; with HRV (87) it was 60 nM.

A word on the EC50: it is the midpoint of the concentration-response curve.

Values taken from US20060046966A1, “Antipicornaviral compounds and compositions, their pharmaceutical uses, and materials for their synthesis” (Agouron Pharmaceuticals, Inc., priority 1998, published 2006).
